Results as given in patent US20060041022A1, “Treatment of amyotrophic lateral sclerosis with nimesulide” (priority 2002, published 2006).
Like-named read-outs stand apart in the source and are kept apart here.

How the values were obtained:
[1] = system: 4.8 kDa protein (also 5.3 and 5.7 kDa proteins) in spinal cord of SOD1 mice
Description: (§1) Mice Studies were performed on 8 week old female mice overexpressing mutated human superoxide dismutase (codon 93 glycine→alanine G93A (TgN[SOD1-G93A]1Gur(Gurney et al., 1994, Science 264(5166):1772-1775) Jackson Laboratory, Bar Harbor, Me.; “SDO1 mice”) and their wild type littermates. Mice were housed on a 12 hour day/light cycle and (beginning at 45 d of age) allowed ad libitum access to either nimesulide (NMS)-supplemented (19 g/10 kg) chow, delivering ˜[…] per day to the animal, or, as a control, plain NIH-07 formula cold press chow processed into identical ½ inch pellets (Zeigler Bros Inc, Garners, Pa.). Genotyping was conducted at 21 days of age as described in Gurney et al., 1994, Science 264(5166):1772-1775.
(§2) Pathology examination. To evaluate molecular changes during the period of therapeutic efficacy of NMS, a sub group of mice were sacrificed by cervical dislocation 95-105 d of age. Blood, brain and lumbar spinal cord samples were then rapidly harvested and prepared for analysis.

in vivo = conditions: for Kp: female, mouse, brain (cerebral cortex parenchyma) relative to serum, oral
Description: as §1, §2
Nimesulide and Prostaglandin E2. […] Prostaglandin-E2 expression in the left caudal hemisphere of the brain (including substantia nigra, and motor cortex) was measured by immuno-assay (Cayman Ann Arbor, Mich.), which was performed as follows. Briefly, pulverized brain tissue stored in liquid N2 was homogenized in 0.1M phosphate-buffered saline (containing 1 mM EDTA and 10 μM indomethacin), mixed with an equal volume of ethanol, and centrifuged. The supernatant was diluted with 50 mM acetic buffer and purified through an affinity column (Cayman). The column was equilibrated with column buffer (0.1M phosphate-buffered saline, 7.7 mM NaN3, 0.5 M […]) followed by UltraPure water, the supernatant was then eluted from the 4 ml column by adding the elution solution and allowing it to pass through the packing material. The eluate was then evaporated and re-dissolved in enzyme-linked immunoassay buffer, applied to a 96-well plate pre-coated with goat anti-mouse IgG and incubated with PGE2 monoclonal antibody and (recovery tracer) for 18 hr at 4° C. […]

SOD1 mutant mice [2] = system: SOD1 mutant mice
Description: as §1
(§3) Rotarod and Grid Walking Tests. To assess balance, coordination and muscle strength mice were tested on the accelerating rotarod (7650 Ugo Basile Biol. Res. App., Italy) and grid walking tests. […] For the grid walking test, animals were placed into the distal end of a walled chamber (15 cm W×60 cm L, 20 cm high walls and a wire mesh bottom) suspended 1 meter above the floor. The number of foot misses (entire paw and portion of limb pokes through the wire mesh) while crossing a distance of 60 cm was recorded.

SOD1 mutant mice [3] = system: SOD1 mutant mice; remark: listed apart in the source
Description: as §1, §3

[4] = geriatric patients, periods greater than two years; cited from earlier work
Prostaglandin E2 = conditions: SOD1 (or WT) mice, prophylactic nimesulide in the diet, FIG. 4B
Description: as §1, §2
Nimesulide and Prostaglandin E2. […] Prostaglandin-E2 expression in the left caudal hemisphere of the brain (including substantia nigra, and motor cortex) was measured by immuno-assay (Cayman Ann Arbor, Mich.), which was performed as follows. […]

[5] = for effect on weight: SOD1 or wild type mice, nimesulide diet vs normal diet, weighed weekly
Description: as §1
Health/Neurologic Status. To assess health status mice were weighed weekly and examined for changes in lacrimation/salivation, palpebral closure, ear twitch and pupillary responses, whisker orienting, postural and righting reflexes and Body Condition Score (BCS) (Ullman-Cullere 1999). Finally, a general pathological examination was conducted at time of sacrifice.

[6] = SOD1 mice on NMS diet, control diet mean onset at 108 days

CS(=O)(=O)Nc1ccc([N+](=O)[O-])cc1Oc1ccccc1 [nimesulide, 4-nitro-2-phenoxymethanesulfonanilide]
level of approximately 4.8 kDa protein (negatively charged at pH 9) in spinal cord ([1]; SOD1 mice with NMS treatment, prior to onset of motor impairment, FIGS. 3A and B): regulated back to control levels | levels of approximately 5.3 and 5.7 kDa proteins ([1]; SOD1 mice, lumbar spinal cord, proteins increase with disease progression): decrease | nimesulide concentration in serum (in vivo; delivery through feeding, 2-3 months treatment, at onset of bilateral hind-limb paralysis, FIG. 4A): approximately 30 μM | Kp (in vivo; TgN[SOD1-G93A]1Gur (SOD1-G93A transgenic)): ~0.1 | Kp (in vivo): 0.1 | age until which motor skill integrity was exhibited (SOD1 mutant mice [2]; [6]): 124 days of age | motor ability maintained beyond SOD1 mice fed control diet (SOD1 mutant mice [2]; SOD1 mice, nimesulide diet, n=6, P<0.05 on days 113, 115, 122, 124, FIG. 2): 10 days | onset of impairment relative to untreated counterparts (SOD1 mutant mice [3]; NMS-treated SOD1 mice, rotarod and grid walking tests): significant delay | age until which motor skill integrity was exhibited (SOD1 mutant mice [3]; [6]): 120 days of age | delay in the onset of motor impairment (SOD1 mutant mice [3]; SOD1 mice, nimesulide-supplemented chow vs control diet, n=6, P<0.05, FIG. 1): 10 days | tolerability [4]: well tolerated | PG-E2 content (Prostaglandin E2): decreased | effect on weight [5]: No detectable difference | effect on weight ([5]; listed as NMS): no effect | health/neurologic tests ([5]; all groups, SOD1 groups showed decreased BCS and impaired reflexes after hind limb paralysis): unremarkable
